From US20130337564A1, “Treatment of Pluripotent Cells” (Janssen Biotech, Inc., priority 2012, published 2013) come the findings set out here.

Values joined by “and” are separate entries in the source; they are usually repeats but may differ in a detail not shown here. Equal entries are not always repeated.

Type in all cases: cell-based
The subject of assay [1] is human embryonic stem cells (H9 line). Description: High content screening assay: cell number (proliferative response). Conditions: for fold induction at 10 µM: Homo sapiens, Embryonic stem cell, read-out: Proliferative Response, Fold over Wnt 3a/AA control. An outline of the steps:
(§1)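 H9 hESCs on MATRIGEL treated days 1-2 with 10 μM compound in DMEM:F12, 0.5% FCS, 100 ng/ml activin A; days 3-4 with 2% FCS plus activin A without compound. Fixed cells immunostained for Sox17 or HNF-3beta with Draq5 nuclear counterstain. Cell number and staining intensity quantified by high-content imaging, 12 fields/well.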

Assay [2] has as its system HNF-3beta expression in human embryonic stem cells (H9 line). Put plainly: High content screening assay: HNF-3beta protein expression (differentiation). An outline of the steps:
as §1

Assay [3] has as its system Sox17 expression in human embryonic stem cells (H9 line). Put plainly: High content screening assay: Sox17 protein expression (differentiation). Conditions: for fold induction at 10 µM: Homo sapiens, Embryonic stem cell, read-out: SOX17 Expression, Fold over Wnt 3a/AA control. In short, it runs like this: as §1
Assay [4] relates to cells expressing pluripotency markers derived from human embryonic stem cells. Put plainly: MTS viability (toxicity) assay of cells expressing pluripotency markers. On the set-up: Raw data (duplicate), first replicate / Average: unit not given here. Conditions: for viability at 10 µM: Homo sapiens, Embryonic stem cell; for Raw data (duplicate), first replicate / Raw data (duplicate), second replicate: MTS viability assay raw reading; for Raw data (duplicate), first replicate: replicate 1; for Raw data (duplicate), second replicate: replicate 2; for Average: average of duplicate MTS raw readings; for Average of raw data (duplicate), optical density at 490 nm: MTS on day 4. An outline of the steps: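 Cells expressing pluripotency markers, derived from human embryonic stem cells, were plated at 20,000 cells per well in 96-well clear-bottom plates and cultured overnight. Test compounds were applied in assay medium on days 1 and 2, and compound-free medium on days 3 and 4. On day 4, MTS was added and optical density at 490 nm was read in duplicate.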

[5] abbreviates: cell number in the wells analysed for HNF-3b expression.
The mark [6] stands for this setting: cell number in the wells analysed for SOX-17 expression.
Where [7] appears, read: viability of cells expressing pluripotency markers, relative to control.
The mark [8] stands for this setting: 10 μM test compound with 100 ng/ml activin A on days 1-2, H9, total intensity by IN Cell Analyzer, strong and moderate hits.
Where [9] appears, read: 10 μM test compound with 100 ng/ml activin A on days 1-2, H9, total cell number by IN Cell Analyzer, strong and moderate hits.

In the case of `O=C1NC(=O)C(c2cn(CCCO)c3ncccc23)=C1c1cc(Cl)sc1Cl` [Compound 18, 3-(2,5-Dichlorothiophen-3-yl)-4-[1-(3-hydroxypropyl)-1H-pyrrolo[2,3-b]pyridin-3-yl]-1H-pyrrole-2,5-dione], the “Proliferative Response Total cells” value in assay [1] (setting [5]) was 4. Besides, the “Proliferative Response Total cells” value in assay [1] (setting [6]) is 3. Further, the “HNF-3b Expression Total Intensity” value in assay [2] was found to be 28439. Besides, the “SOX-17 Expression Total Intensity” value in assay [3] stood at 0. In addition, the viability at 10 µM in assay [4] (setting [7]) came out at 69.9%. For the same compound, in assay [4], the “Raw data (duplicate), first replicate” value was found to be 0.637; the “Raw data (duplicate), second replicate” value is recorded as 0.554; the Average came to 0.595.
As for `Cn1ccc(C2=C(c3cn(CCCO)c4ncccc34)C(=O)NC2=O)n1` [Compound 209], the “Proliferative Response Total cells” value in assay [1] (setting [5]) is reported as 4209. Further, in assay [1] (setting [6]), the “Proliferative Response Total cells” value is on record as 2473. In addition, the fold induction at 10 µM in assay [2] (Homo sapiens, Embryonic stem cell, 10 μM test compound with 100 ng/ml activin A on days 1-2, H9, total intensity by IN Cell Analyzer, strong and moderate hits, read-out: HNF3β Expression, Fold over Wnt 3a/AA control) is 0.772. The “HNF-3b Expression Total Intensity” value in assay [2] was found to be 143916667. For the same compound, the fold induction at 10 µM in assay [3] (setting [8]) turned out to be 0.628. Also, in assay [3], the “SOX-17 Expression Total Intensity” value turned out to be 80676667. Moreover, in assay [4] (setting [7]), the viability at 10 µM worked out at 121%. Moreover, in assay [4], the “Raw data (duplicate), first replicate” value turned out to be 0.971; the “Raw data (duplicate), second replicate” value is listed as 0.913; the Average was found to be 0.942.
As to `Cn1cc(C2=C(c3nn(CCCn4ccnc4)c4ccccc34)C(=O)NC2=O)c2cc(Cl)ccc21` [Compound 231, 3-(5-Chloro-1-methyl-1H-indol-3-yl)-4-{1-[3-(1H-imidazol-1-yl)propyl]-1H-indazol-3-yl}-1H-pyrrole-2,5-dione], the values for the fold induction at 10 µM in assay [1] (setting [9]) and in assay [3] (setting [8]) were 0.9 and 0.811, respectively. Also, the “Proliferative Response Total cells” value in assay [1] (setting [5]) was 11369; in assay [1] (setting [6]), 13789. Further, the “HNF-3b Expression Total Intensity” value in assay [2] turned out to be 547055000. Further, the “SOX-17 Expression Total Intensity” value in assay [3] is 789085000. In addition, the viability at 10 µM in assay [4] (setting [7]) was found to be 76.7%. In addition, in assay [4], the “Raw data (duplicate), first replicate” value was determined as 0.640. Further, the “Raw data (duplicate), second replicate” value in assay [4] is reported as 0.636. This compound showed an Average in assay [4] of 0.638.
For the compound `O=C1NC(=O)C(c2cn(CCCO)c3ncccc23)=C1c1cn(CCCO)cn1` [Compound 182, 3-[1-(3-Hydroxypropyl)-1H-imidazol-4-yl]-4-[1-(3-hydroxypropyl)-1H-pyrrolo[2,3-b]pyridin-3-yl]-1H-pyrrole-2,5-dione], the “Proliferative Response Total cells” value in assay [1] (setting [5]) is 425. For the same compound, the “Proliferative Response Total cells” value in assay [1] (setting [6]) came out at 20. For the same compound, in assay [2], the “HNF-3b Expression Total Intensity” value was 8880858. Also, in assay [3], the “SOX-17 Expression Total Intensity” value came out at 0. Further, the viability at 10 µM in assay [4] (setting [7]) amounted to 100%. In assay [4], the “Raw data (duplicate), first replicate” value stood at 0.802; the “Raw data (duplicate), second replicate” value was determined as 0.801; the Average worked out at 0.802.
As for `COc1ccccc1C1=C(c2cn(CCCNC(=O)OC(C)(C)C)c3ncccc23)C(=O)NC1=O` [Compound 26, 1,1-Dimethylethyl [3-(3-{4-[2-(methyloxy)phenyl]-2,5-dioxo-2,5-dihydro-1H-pyrrol-3-yl}-1H-pyrrolo[2,3-b]pyridin-1-yl)propyl]carbamate], the “Proliferative Response Total cells” value in assay [1] (setting [5]) is listed as 136. The “Proliferative Response Total cells” value in assay [1] (setting [6]) is recorded as 109. Also, in assay [2], the “HNF-3b Expression Total Intensity” value stood at 15725984. For the same compound, the “SOX-17 Expression Total Intensity” value in assay [3] is 15714170. In addition, the viability at 10 µM in assay [4] (setting [7]) came out at 76.4%. For the same compound, in assay [4], the “Raw data (duplicate), first replicate” value worked out at 0.568; the “Raw data (duplicate), second replicate” value was determined as 0.709; the Average is listed as 0.639.
Consider `O=C1NC(=O)C(c2cn(CCCO)c3ncccc23)=C1c1cn(CCO)cn1` [Compound 183, 3-[1-(2-Hydroxyethyl)-1H-imidazol-4-yl]-4-[1-(3-hydroxypropyl)-1H-pyrrolo[2,3-b]pyridin-3-yl]-1H-pyrrole-2,5-dione], for which the “Proliferative Response Total cells” value in assay [1] (setting [5]) is listed as 5. In addition, the “Proliferative Response Total cells” value in assay [1] (setting [6]) is 7. The “HNF-3b Expression Total Intensity” value in assay [2] was 170177. The “SOX-17 Expression Total Intensity” value in assay [3] is 48154. Further, in assay [4] (setting [7]), the viability at 10 µM came out at 82.6%. In addition, in assay [4], the “Raw data (duplicate), first replicate” value was determined as 0.792; the “Raw data (duplicate), second replicate” value is 0.572; the Average worked out at 0.682.
For the compound `O=C(Nc1ccc(C(=O)N2CC3CSCCN3Cc3ccccc32)c(Cl)c1)c1cc(Cl)cc(Cl)c1` (stereo not drawn) [Compound 166, 3,5-Dichloro-N-[3-chloro-4-(3,4,12,12a-tetrahydro-1H-[1,4]thiazino[3,4-c][1,4]benzodiazepin-11(6H)-ylcarbonyl)phenyl]benzamide], in assay [1] (setting [9]), the fold induction at 10 µM came to 0.621. Also, the “Proliferative Response Total cells” value in assay [1] (setting [5]) is recorded as 787. For the same compound, the “Proliferative Response Total cells” value in assay [1] (setting [6]) was 562. The “HNF-3b Expression Total Intensity” value in assay [2] came out at 10743082. In assay [3], the “SOX-17 Expression Total Intensity” value came to 11388240. For the same compound, in assay [4] (setting [7]), the viability at 10 µM is 74.8%. In addition, in assay [4], the “Raw data (duplicate), first replicate” value came out at 0.615; the “Raw data (duplicate), second replicate” value amounted to 0.635; the Average was determined as 0.625.
Turning to `CN(CCO)CCCn1nc(C2=C(c3cn(-c4cccnc4)c4ccccc34)C(=O)NC2=O)c2ccccc21` [Compound 198, 3-(1-{3-[(2-Hydroxyethyl)(methyl)amino]propyl}-1H-indazol-3-yl)-4-(1-pyridin-3-yl-1H-indol-3-yl)-1H-pyrrole-2,5-dione], the “Proliferative Response Total cells” value was found to be 2594 in assay [1] (setting [5]) and 2386 in assay [1] (setting [6]). Moreover, the “HNF-3b Expression Total Intensity” value in assay [2] was 61161468. Besides, the “SOX-17 Expression Total Intensity” value in assay [3] was 20866647. The viability at 10 µM in assay [4] (setting [7]) amounted to 112%. In assay [4], the “Raw data (duplicate), first replicate” value was determined as 0.856. For the same compound, the “Raw data (duplicate), second replicate” value in assay [4] amounted to 0.905. This compound had an Average in assay [4] of 0.881. Further, the “Average of raw data (duplicate), optical density at 490 nm” value came out at 0.7480 in assay [4] (cmpd conc 2.5 μM), 0.6893 in assay [4] (cmpd conc 5 μM) and 0.4619 in assay [4] (cmpd conc 10 μM).
With `COc1ccccc1C1=C(c2cn(-c3ccc4ccccc4c3)c3ncccc23)C(=O)NC1=O` [Compound 23, 3-[2-(Methyloxy)phenyl]-4-(1-naphthalen-2-yl-1H-pyrrolo[2,3-b]pyridin-3-yl)-1H-pyrrole-2,5-dione], the “Proliferative Response Total cells” value in assay [1] (setting [5]) was 399. Further, the “Proliferative Response Total cells” value in assay [1] (setting [6]) is listed as 88. For the same compound, in assay [2], the “HNF-3b Expression Total Intensity” value is 65100086. Moreover, the “SOX-17 Expression Total Intensity” value in assay [3] is 7121122. Moreover, the viability at 10 µM in assay [4] (setting [7]) turned out to be 102%. Besides, in assay [4], the “Raw data (duplicate), first replicate” value is given as 0.882; the “Raw data (duplicate), second replicate” value came out at 0.748; the Average is given as 0.815.
As to `O=C1NC(=O)C2=C1c1cn(c3ncccc13)CCOCCOCCOCCOCCn1cc2c2cccnc21` [Compound 169], in assay [1] (setting [9]), the “Proliferative Response Fold over Wnt 3a/AA control” value was 1.0764 Fold over Wnt 3a/AA control. In assay [2] (setting [8]), the “HNF3β Expression, Fold over Wnt 3a/AA control” value was 0.9520 Fold over Wnt 3a/AA control. The “SOX17 Expression, Fold over Wnt 3a/AA control” value in assay [3] (setting [8]) is 1.0342 Fold over Wnt 3a/AA control. In addition, in assay [4], the “Raw data (duplicate), first replicate” value is 0.681 and 0.636; the “Raw data (duplicate), second replicate” value is 0.698 and 0.621; the Average was 0.689 and 0.629. In addition, the “% Control” value in assay [4] (setting [7]) was 84.5% and 75.4%.
